According to patent publication US9226919B2, “Methods for dosing an orally active 1,2,4-oxadiazole” (PTC Therapeutics, Inc., priority 2006, dated 2016):

Legend:
CFTR = experiment: Transepithelial potential difference (TEPD) chloride conductance, Phase 2 cystic fibrosis study; format: in vivo, human; settings: 15 CF patients
Procedure: The measurement of transepithelial potential difference (TEPD), also known as nasal potential difference, provides a sensitive evaluation of sodium and chloride transport directly in secretory epithelial cells via assessment of transepithelial bioelectric properties (Knowles et al., 1981, N. Engl. J. Med. 305(25):1489-95; Knowles et al., 1995, Hum. Gene Ther. 6:445). TEPD is performed in each nostril using standardized techniques (Standaert et al., 2004, Ped. Pulm. 37:385-92). In the procedure, a small plastic catheter is used to assess electrical differences across the outer cell membrane of nasal mucosa cells in the nostril. TEPD values are expressed in millivolts, or mV. A chloride conductance equal to or more electrically negative than −5.0 mV is generally considered to be in the normal range. […] TEPD assessments can also be made on rectal epithelial cells and lower respiratory epithelial cells. Because of the role of the CFTR protein in transporting chloride ions across cell membranes, and because of the absence of this protein, cystic fibrosis patients have an abnormal TEPD chloride conductance. As an endpoint, TEPD has the advantage that it can detect chloride transport changes that are a quantitative integration of the presence, functional activity, and apical location of the CFTR in airway cells. Furthermore, it is a direct measure of CFTR activity that is not likely to be affected by supportive or palliative treatments for CF (with the possible exception of systemically administered aminoglycoside antibiotics). Of importance is evidence that TEPD values can correlate with the degree of pulmonary dysfunction and radiographic abnormality (Ho et al., 1997, Eur. Respir. J. 10(9):2018-22; Fajac et al., 1998, Eur. Respir. J 12(6):1295-300; Sermet-Gaudelus et al., 2005, Am. J. Respit. Crit. Care Med. 171(9):1026-1031). […] Under baseline conditions, TEPD-assessed chloride channel activity is very unlikely to normalize spontaneously in patients with CF; any observed improvements in TEPD-assessed chloride channel activity are expected to specifically denote pharmacological activity of CFTR-correcting therapies. […]
Clinical endpoints were evaluated using the procedures set forth above. […] Pulmonary tests, including FEV1, FVC and MEF25-75, were measured prior to treatment, on day −1 of Cycle 2, on day 13 or 14 of Cycle 1 and day 13 or 14 of Cycle 2 in the study being conducted in Israel and the same parameters were measured prior to treatment and on day 13 or 14 of Cycle 2 in the study being conducted in the United States. […]

[1] = test system: patients with nonsense-mutation-mediated cystic fibrosis; experiment: Investigator-asked changes in cystic fibrosis symptoms, Phase 2 studies; format: in vivo, human
Excerpt: In addition, although changes in patient's symptoms were not formally measured through the use of a quality-of-life questionnaire, trial investigators were requested to ask about changes in patients' cystic fibrosis symptoms. In the 15 patients included in the interim analysis, 6 reported general improvements in well being, 6 reported decrease in cough and 10 reported decreased mucus thickness and easier clearing of mucus.
The device was used to obtain the data set forth in FIG. 2 and will be used to offer substantial supplementary data regarding the clinical benefits of 3-[5-(2-fluoro-phenyl)-[1,2,4]oxadiazol-3-yl]-benzoic acid during Phase 3 testing in CF. Existing informally collected symptom data from the Phase 2 studies of 3-[5-(2-fluoro-phenyl)-[1,2,4]oxadiazol-3-yl]-benzoic acid support this concept. […] Without being limited by theory, based on the hypothesis that 3-[5-(2-fluoro-phenyl)-[1,2,4]oxadiazol-3-yl]-benzoic acid-mediated induction of CFTR function would reduce airway obstruction and inflammation, a decrease in cough frequency could serve as a symptomatic integration of these pharmacological effects and might offer a more accurate and quantitative assessment than verbal patient reporting.

[2] = higher dose level (10, 10, 20 mg/kg TID, 14 days)
[3] = lower dose level (4, 4, 8 mg/kg TID, 14 days)
[4] = of 15 CF patients in interim analysis

For `O=C(O)c1cccc(-c2noc(-c3ccccc3F)n2)c1` [3-[5-(2-fluoro-phenyl)-[1,2,4]oxadiazol-3-yl]-benzoic acid], the “Mean change in TEPD chloride conductance, best of nostrils” value (CFTR; [2]) was −6.4 mV, the “Mean change in TEPD chloride conductance, mean of both nostrils” value (CFTR; [2]) was −4.4 mV and the “Mean change in TEPD chloride conductance, best of nostrils” value (CFTR; [3]) was −9.0 mV. The “Mean change in TEPD chloride conductance, mean of both nostrils” value (CFTR; [3]) was −6.7 mV, the “Patients reporting decrease in cough” value [1, 4] was 6 and the “Patients reporting decreased mucus thickness and easier clearing of mucus” value [1, 4] was 10. The “Patients reporting general improvements in well being” value [1, 4] was 6 and the Patient-described on-study coughing ([1]; several patients, informally collected symptom data, Phase 2 studies) was “decreases in coughing”.
